# Experimental data published in ChEMBL document CHEMBL3885881, “DrugMatrix”.
# Organism: Rattus norvegicus
# Experiment: DrugMatrix - Regimen: Daily Repeat
# Format: toxicity, organism-based, Sprague-Dawley
# Set-up: regimen Daily Repeat, gender Male, age 6-8 weeks
# Conditions: in vivo, po, route oral GAVAGE, […]; for ABSOLUTE BASOPHIL / ABSOLUTE EOSINOPHIL / ABSOLUTE LYMPHOCYTE / ABSOLUTE MONOCYTE / ABSOLUTE SEGMENTED NEUTROPHIL / BASOPHIL / EOSINOPHIL / ERYTHROCYTE COUNT / HEMATOCRIT / HEMOGLOBIN / LEUKOCYTE COUNT / LYMPHOCYTE / MEAN CORPUSCULAR HEMOGLOBIN / MEAN CORPUSCULAR HEMOGLOBIN CONCENTRATION / MEAN CORPUSCULAR VOLUME / MONOCYTE / NEUTROPHIL / NUCLEATED RED BLOOD CELLS / PLATELET COUNT: tissue Blood; for ALANINE AMINOTRANSFERASE / ALBUMIN / ALKALINE PHOSPHATASE / ASPARTATE AMINOTRANSFERASE / BLOOD UREA NITROGEN / CARBON DIOXIDE / CHLORIDE / CHOLESTEROL / CREATINE PHOSPHOKINASE / CREATININE / GLUCOSE / LACTATE DEHYDROGENASE / LIPASE / PHOSPHORUS / POTASSIUM / SODIUM / TOTAL BILIRUBIN / TOTAL PROTEIN / URIC ACID: tissue Plasma
# [1] = 0 mg/kg, 72 h, dose level Control, time 3 day
# [2] = 0 mg/kg, 120 h, dose level Control, time 5 day
# [3] = 30 mg/kg, 72 h, dose level Low, time 3 day
compound,measurement,setting,value
COC1=CC(=O)C[C@@H](C)[C@]12Oc1c(Cl)c(OC)cc(OC)c1C2=O [GRISEOFULVIN],ABSOLUTE BASOPHIL,[1],0 CELLS/uL
same,ABSOLUTE EOSINOPHIL,[1],0 CELLS/uL
same,ABSOLUTE LYMPHOCYTE,[1],14687.67 CELLS/uL
same,ABSOLUTE MONOCYTE,[1],164 CELLS/uL
same,ABSOLUTE SEGMENTED NEUTROPHIL,[1],1748.33 CELLS/uL
same,BASOPHIL,[1],0%
same,EOSINOPHIL,[1],0%
same,ERYTHROCYTE COUNT,[1],5.51 x10E6/uL
same,HEMATOCRIT,[1],33.68%
same,HEMOGLOBIN,[1],13.4 G/DL
same,LEUKOCYTE COUNT,[1],16.6 x10E3/uL
same,LYMPHOCYTE,[1],88.83%
same,MEAN CORPUSCULAR HEMOGLOBIN,[1],24.47 pg
same,MEAN CORPUSCULAR HEMOGLOBIN CONCENTRATION,[1],39.82 G/DL
same,MEAN CORPUSCULAR VOLUME,[1],61.23 fL
same,MONOCYTE,[1],0.83%
same,NEUTROPHIL,[1],10.33%
same,NUCLEATED RED BLOOD CELLS,[1],0 /100WBC
same,PLATELET COUNT,[1],1329.67 x10E3/uL
same,ALANINE AMINOTRANSFERASE,[1],61.33 u/L
same,ALBUMIN,[1],4.18 G/DL
same,ALKALINE PHOSPHATASE,[1],332.5 u/L
same,ASPARTATE AMINOTRANSFERASE,[1],98.33 u/L
same,BLOOD UREA NITROGEN,[1],15.83 mg/dL
same,CARBON DIOXIDE,[1],27.83 mmol/L
same,CHLORIDE,[1],100 MEQ/L
same,CHOLESTEROL,[1],76.17 mg/dL
same,CREATINE PHOSPHOKINASE,[1],729.17 u/L
same,CREATININE,[1],0.21 mg/dL
same,GLUCOSE,[1],151.83 mg/dL
same,LACTATE DEHYDROGENASE,[1],484.67 u/L
same,LIPASE,[1],10 u/L
same,PHOSPHORUS,[1],11.3 mg/dL
same,POTASSIUM,[1],6.1 MEQ/L
same,SODIUM,[1],142.9 MEQ/L
same,TOTAL BILIRUBIN,[1],0.23 mg/dL
same,TOTAL PROTEIN,[1],5.68 G/DL
same,URIC ACID,[1],1.75 mg/dL
same,ABSOLUTE BASOPHIL,[2],0 CELLS/uL
same,ABSOLUTE EOSINOPHIL,[2],58.67 CELLS/uL
same,ABSOLUTE LYMPHOCYTE,[2],15950.83 CELLS/uL
same,ABSOLUTE MONOCYTE,[2],172.5 CELLS/uL
same,ABSOLUTE SEGMENTED NEUTROPHIL,[2],2551.33 CELLS/uL
same,BASOPHIL,[2],0%
same,EOSINOPHIL,[2],0.33%
same,ERYTHROCYTE COUNT,[2],5.5 x10E6/uL
same,HEMATOCRIT,[2],34.05%
same,HEMOGLOBIN,[2],13.42 G/DL
same,LEUKOCYTE COUNT,[2],18.73 x10E3/uL
same,LYMPHOCYTE,[2],84.5%
same,MEAN CORPUSCULAR HEMOGLOBIN,[2],24.42 pg
same,MEAN CORPUSCULAR HEMOGLOBIN CONCENTRATION,[2],39.42 G/DL
same,MEAN CORPUSCULAR VOLUME,[2],61.97 fL
same,MONOCYTE,[2],1%
same,NEUTROPHIL,[2],14.17%
same,NUCLEATED RED BLOOD CELLS,[2],0.33 /100WBC
same,PLATELET COUNT,[2],1143.17 x10E3/uL
same,ALANINE AMINOTRANSFERASE,[2],57 u/L
same,ALBUMIN,[2],4.17 G/DL
same,ALKALINE PHOSPHATASE,[2],347.33 u/L
same,ASPARTATE AMINOTRANSFERASE,[2],93.67 u/L
same,BLOOD UREA NITROGEN,[2],15.67 mg/dL
same,CARBON DIOXIDE,[2],27.17 mmol/L
same,CHLORIDE,[2],104.33 MEQ/L
same,CHOLESTEROL,[2],69.5 mg/dL
same,CREATINE PHOSPHOKINASE,[2],317.17 u/L
same,CREATININE,[2],0.2 mg/dL
same,GLUCOSE,[2],162.33 mg/dL
same,LACTATE DEHYDROGENASE,[2],408.67 u/L
same,LIPASE,[2],10.17 u/L
same,PHOSPHORUS,[2],11.08 mg/dL
same,POTASSIUM,[2],6.36 MEQ/L
same,SODIUM,[2],146.07 MEQ/L
same,TOTAL BILIRUBIN,[2],0.22 mg/dL
same,TOTAL PROTEIN,[2],5.92 G/DL
same,URIC ACID,[2],1.47 mg/dL
same,ABSOLUTE BASOPHIL,[3],0 CELLS/uL
same,ABSOLUTE EOSINOPHIL,[3],0 CELLS/uL
same,ABSOLUTE LYMPHOCYTE,[3],15609 CELLS/uL
same,ABSOLUTE MONOCYTE,[3],50.67 CELLS/uL
same,ABSOLUTE SEGMENTED NEUTROPHIL,[3],2173.67 CELLS/uL
same,BASOPHIL,[3],0%
same,EOSINOPHIL,[3],0%
same,ERYTHROCYTE COUNT,[3],5.42 x10E6/uL
same,HEMATOCRIT,[3],34.33%
same,HEMOGLOBIN,[3],13.33 G/DL
same,LEUKOCYTE COUNT,[3],17.83 x10E3/uL
same,LYMPHOCYTE,[3],87.67%
same,MEAN CORPUSCULAR HEMOGLOBIN,[3],24.6 pg
same,MEAN CORPUSCULAR HEMOGLOBIN CONCENTRATION,[3],38.9 G/DL
same,MEAN CORPUSCULAR VOLUME,[3],63.3 fL
same,MONOCYTE,[3],0.33%
same,NEUTROPHIL,[3],12%
same,NUCLEATED RED BLOOD CELLS,[3],0 /100WBC
same,PLATELET COUNT,[3],1271.33 x10E3/uL
same,ALANINE AMINOTRANSFERASE,[3],68.33 u/L
same,ALBUMIN,[3],3.87 G/DL
same,ALKALINE PHOSPHATASE,[3],322.67 u/L
same,ASPARTATE AMINOTRANSFERASE,[3],105.67 u/L
same,BLOOD UREA NITROGEN,[3],16 mg/dL
same,CARBON DIOXIDE,[3],30.33 mmol/L
same,CHLORIDE,[3],103 MEQ/L
same,CHOLESTEROL,[3],72.67 mg/dL
same,CREATINE PHOSPHOKINASE,[3],481 u/L
same,CREATININE,[3],0.24 mg/dL
same,GLUCOSE,[3],139.67 mg/dL
same,LACTATE DEHYDROGENASE,[3],535 u/L
same,LIPASE,[3],10 u/L
same,PHOSPHORUS,[3],11.37 mg/dL
same,POTASSIUM,[3],6.77 MEQ/L
same,SODIUM,[3],145.27 MEQ/L
same,TOTAL BILIRUBIN,[3],0.2 mg/dL
same,TOTAL PROTEIN,[3],5.3 G/DL
same,URIC ACID,[3],1.6 mg/dL
